Results as given in patent publication US20200315171A1, “PSYLLID PHEROMONE COMPOSITIONS” (The Regents of the University of California, priority 2017, published 2020).
“Also recorded” adds a separate entry of the source.

Key:
[1] = system: ACP male antennae; experiment: Electroantennogram (EAG) responses of ACP male antennae to C1-C6 acids; design: species or system Diaphorina citri
Description: (§1) Electrophysiology. Antennas were mounted, according to a published protocol^26, under a stereoscopic microscope (SZT, BEL Engineering, MB, Italy). Antennae were connected with glass microcapillaries pulled with a PC-10 puller (Narishige, Kanto, Japan). The glass capillaries housed 0.39 mm gold wires (Sigmund Cohn Corp, Mt. Vernon, N.Y.) and were filled with a saline solution (3.7 g NaCl, 0.175 g KCl, 0.17 g CaCl2 in 500 mL of distilled water). Electrodes were connected to a Universal Probe, gain 10× (Syntech, Buchenbach, Germany) and connected to a 2-Chanel IDAC Acquisition Controller (Syntech). The signal was processed with Syntech software (GcEad version 4.6). Two Pasteur pipettes were used one for a flow balance and the other as a stimulus. The stimulus was loaded on a filter paper strip (40×4-mm), which was inserted in the stimulus pipette after evaporation for 1 min. Each cartridge was used only once. The antennal preparation was set at the end of an effluent flow tube, which had two lateral holes (13 cm from the antennal preparations) to accommodate the tips of the Pasteur pipettes (stimulus and flow balance). Humidified continuous flow (0.1 L/min) was generated by a CS-55 Stimulus Controller (Syntech). Flow for stimulus and balance were set at 1 L/min. Stimulus duration was set a 1 s. There was a minimal interval of 1 min between stimuli.

[2] = system: D. citri adults; experiment: Field tests with baited yellow sticky traps in a citrus grove; type: in vivo, Diaphorina citri; settings: for Males caught: higher-dose field experiment, n=48 per trap
Description: Field Experiment 1: Evaluation of lignoceryl acetate, lygnocerol, formic acid, acetic acid, and propionic acid. These experiments were performed in an organic grove of Valencia sweet orange [Citrus sinensis (L.) Osbeck] grafted on ‘Rangpur’ lime (Citrus limonia Osbeck) with natural infestation of D. citri. For this purpose, yellow stick cards (30 cm in length×10 cm in width) with a 2 cm in diameter central hole were used to assess the attractivity of the test compounds to D. citri adults. Compounds were assessed at doses ranging from 0.01 μg to 100 μg. Hexane was used as a control. Tested compounds were incorporated into slow-release devices made of ES fiber (Ethylene-Propylene Side by Side, Chiso Co. Ltd, Japan). The experiments were designed in Latin square using 16 traps spaced 25 m from each other (4 traps per treatment). They were repeated three times over time and the number of captured ACP adults was recorded each 7 days for 49 days.
(§2) Statistical analyses. […] Each pair of a test and a control in indoor behavioral measurements using an Y-olfactometer or 4-way olfactometer, as well in field tests comparing only a single treatment and a control, was compared by using two-tailed, Wilcoxon matched-pairs signed rank test.

[3] = system: ACP female antennae; experiment: Electroantennogram (EAG) responses of ACP female antennae to acids; design: species or system Diaphorina citri; settings: source dose 10^−1
Description: as §1

[4] = system: olfactory receptor neurons in ACP antennae; settings: reported in reference 28; cited from earlier work
[5] = system: 7-day-old virgin D. citri males; experiment: Y-olfactometer behavioral assay, virgin males as responders; type: in vivo, Diaphorina citri
Description: (§3) Indoor behavioral assays. All behavioral assays were conducted in a climate-controlled room (see above). A glass tube in a Y-shape (central tube 15 cm in length and 3 cm in diameter split into two tubes in a 120° angle with the same dimensions used in the central tube) was placed vertically with the decision arms pointing towards the ceiling (light sources). All connections were made with 0.635-diameter polytetrafluoroethylene (PTFE) tubes (Sigma-Aldrich, Bellefonte, Pa., USA). Clean air was provided by an oil-free air compressor (Schulz MSV6, Schulz, Joinville, SC, Brazil) and humidified into milliQ water before the line was split into two separate lines, each one with an air flowmeter with a range from 0.1 to 1.0 L/min (Brooks Instrument, Hatfield, Pa. USA) to allow balanced flow of […]. […] Insects that crossed the central tube line located 5 cm from the bifurcation within the observation time of 5 min were recorded as responders. […]
(§4) Statistical analyses. […] Field tests with multiple comparison (different doses) were analyzed by ANOVA. Capture data were first transformed into log (x+1) and them means were analyzed by Dunnett's test as well as Tukey's test (P<0.05) by comparing the mean of each column with the mean of the control or with the mean of every other group, respectively.

[6] = system: D. citri adults; experiment: Field tests with transparent traps baited with aged lignoceryl acetate lures; type: in vivo, Diaphorina citri
Description: Field Experiment 2: Evaluation of aged lignoceryl acetate lures. Lures were prepared and kept in greenhouses for 28 days prior to being fixed in yellow stick cards in the field. Thus, aged lures were tested in the field starting on day 28 until 70 days after preparation of the lures. The area, experimental design, number of traps, and data collection were the same as described above.
Field Experiment 3: Evaluation of lignoceryl acetate lures using transparent traps. To avoid interference from the yellow visual cues from the stick cards, these experiments were performed with transparent acrylic traps (30 cm in length×10 cm in width) and covered with an adhesive glue film (Biostop Cola, Biocontrole, São Paulo, Brazil). The experimental design, number of traps, and data collection were the same as described above.
as §2

[7] = SPME analysis of volatiles from lures matured under field conditions; type: physicochemical; settings: lures matured for 5 weeks under field conditions vs new lures
Description: Injections were operated in splitless mode with an injector temperature of 250° C. The GC ovens were programmed from 40° C. for 1 min, increased to 300° C. at 10° C./min (held for 50 min). MS transfer line, manifold, and trap were set at 300° C., 50° C., and 217° C., respectively. Quantitative analyses were done on a Shimadzu GC-2010 gas chromatograph equipped with a flame ionization detector (Shimadzu Corp., Kyoto, Japan) and fitted with an HP5-MS capillary column (30 m×0.25 mm i.d.×[…]; Agilent Scientific, Santa Clara, Calif., USA). SPME analyses were done with a 50/30 divinylbenzene (DVB)/carboxen (CAR)/polydimethylsiloxane (PDMS) (Supelco, catalogue number 57328-U). Volatile compounds were collected from the headspace of the samples placed in a closed glass container with a rubber septum on the top. Both laboratories used the same oven temperature program, i.e., starting at 35° C. for 5 min, raising to 70° C. at a rate of 2.5° C./min, then increasing to 150° C. at 5° C./min, and subsequently raising to the final temperature of 250° C. at 20° C./min.

[8] = system: 7-day-old virgin D. citri females; settings: acetic acid 0.01 μL/μL hexane, 100 μL
Excerpt: (§5) An air-flow olfactometer, also known as “4-arm olfactometer” or “4-way olfactometer” was constructed^29 (30.0×30.0×2.5 cm in length, width and height, respectively) with acrylic. A constant, charcoal-filtered humidified airflow 0.1 L/min was connected to each odor source, and all airflows converged through individual PTFE tubes to the center of the acrylic arena. Yellow fields were made by adding a yellow laser jet printed-paper below the bottom of the arena with the following color spaces: lightness (84.8±0.04), chroma (98.7±0.40), and hue angle (95.7±0.02) using a colorimeter Minolta CR400 (Konica Minolta Co., Osaka, Japan).^34 Two of the four possible arms received volatiles from acetic acid 0.01 μL/μL hexane (100 μL), whereas the other two remaining received hexane. The psyllids (virgin 7-day-old males or females) were released on the center of the arena. An olfactometer test consisted of the release of a single D. citri and the observation (from 15:00 to 18:00). As a criterion for data collection from each insect, five minutes were allowed for response (first choice). In case of response, 10 minutes were allowed to observe the time spent in each of the four odor fields.
(§6) Statistical analyses. All statistical analyses were done with Prism 7 (GrapPad, La Jolla, Calif.). Each pair of a test and a control in indoor behavioral measurements using an Y-olfactometer or 4-way olfactometer, as well in field tests comparing only a single treatment and a control, was compared by using two-tailed, Wilcoxon matched-pairs signed rank test. Field tests with multiple comparison (different doses) were analyzed by ANOVA. Capture data were first transformed into log (x+1) and them means were analyzed by Dunnett's test as well as Tukey's test (P<0.05) by comparing the mean of each column with the mean of the control or with the mean of every other group, respectively.

[9] = system: 7-day-old virgin D. citri males; settings: acetic acid 0.01 μL/μL hexane, 100 μL
Excerpt: as §5, §6

[10] = system: 7-day-old virgin D. citri females; settings: acetic acid 0.01 μL/μL hexane, 100 μL; remark: listed apart in the source
Description: as §3, §4

[11] = yellow sticky traps baited with 0.1 μg
[12] = yellow sticky traps baited with 1 μg
[13] = yellow sticky traps baited with 10 μg

Q: For `CCCC(=O)O` [butyric acid], which EAG response ([1]; source dose 10^−1) is on record?
A: The EAG response was 0.52±0.36 mV.

Q: With `CCCCCCCCCCCCCCCCCCCCCCCCO` [240H, lignocerol, reference compound] as the molecule, how does the “Captures in treatment vs control traps” value ([2]; doses from 0.1 to 100 μg, each week, Dunnett P=0.2770-0.9999, n=4 per dose per week) read?
A: Its value is “did not find significant differences”.

Q: Which results are given for `O=CO` [formic acid]?
A: EAG response ([1]; source dose 10^−1): 1.60±0.63 mV; EAG response ([1]; source dose 10^−2): 0.42±0.37 mV; EAG response [3]: 1.86±0.48 mV; ACP adults captured [2, 11]: 2.59±0.30 D. citri per trap per week; ACP adults captured [2, 12]: 9.17±0.36 D. citri per trap per week; ACP adults captured [2, 13]: 7.14±0.34 D. citri per trap per week

Q: For `CCC(=O)O` [propionic acid], which EAG response ([1]; source dose 10^−1) is on record?
A: The EAG response was 2.22±0.29 mV.

Q: What about the EAG response ([1]; source dose 10^−2) of the same molecule?
A: Its EAG response is 1.13±0.47 mV.

Q: And the EAG response [3]?
A: Its EAG response is 2.90±1.09 mV.

Q: What about the ACP adults captured ([2]; yellow sticky traps baited with 0.01 μg) of the same molecule?
A: Its ACP adults captured is 9.52±0.52 D. citri per trap per week.

Q: And the ACP adults captured [2, 11]?
A: Its ACP adults captured is 18.27±0.52 D. citri per trap per week.

Q: And the ACP adults captured [2, 12]?
A: The ACP adults captured was 13.79±0.53 D. citri per trap per week.

Q: What about the “Effect on responses from olfactory receptor neurons” value [4] of the same molecule?
A: The value was “inhibit responses”.

Q: For `CCCCC(=O)O` [valeric acid], which EAG response ([1]; source dose 10^−1) is on record?
A: Its EAG response is 0.24±0.03 mV.

Q: With `CCCCCC(=O)O` [hexanoic acid, reference compound] as the molecule, how does the EAG response ([1]; source dose 10^−1) read?
A: Its EAG response is “no response”.

Q: For `CCCCCCCCCCCCCCCCCCCCCCCCOC(C)=O` [24Ac, tetracosyl acetate], which “Preference of virgin males for treatment vs control in olfactometer” value ([5]; 0.1 to 100 μg as odor source, P=0.2031-0.9999) is on record?
A: Its value is “did not show any significant preference”.

Q: And the “Lure activity after 42 days” value ([2]; 1 μg per trap, after 42 days)?
A: The value was “lost activity”.

Q: What about the “Captures in baited traps vs control traps” value ([2]; 1 μg per trap, at 35 and 42 days) of the same molecule?
A: The value was “significantly more males were captured”.

Q: And the “Captures in baited traps vs control traps” value ([2]; 1, 10 and 100 μg per trap, first weeks of the experiments)?
A: Its value is “not significantly different”.

Q: And the “Captures in baited traps vs control traps” value ([2]; 1.0, 10 and 100 μg, 35 and 42 days after onset)?
A: The value was “a significant difference was observed; also recorded: significantly higher than captures in control traps”.

Q: And the Lure activity ([6]; aged lures, after 3 weeks in field)?
A: The Lure activity was “lost all activity”.

Q: What about the “Males collected vs control traps” value ([6]; lures aged for 35 days, first week in field) of the same molecule?
A: Its value is “collected significantly more males than control traps”.

Q: What about the “Degradation of lure: volatiles detected by SPME” value [7] of the same molecule?
A: The value was “small amounts of acetic acid in aged but not in new lures”.

Q: Which EAG response ([1]; source dose 10^−1) does the source give for `CC(=O)O` [acetic acid] here?
A: The EAG response was 2.70±0.36 mV.

Q: And the EAG response ([1]; source dose 10^−2)?
A: The EAG response was 1.73±0.37 mV.

Q: And the EAG response ([1]; very low dose 10^−3)?
A: Its EAG response is 0.44±0.21 mV.

Q: And the EAG response [3]?
A: Its EAG response is 3.22±0.94 mV.

Q: And the “Male attraction to treatment side vs control side of Y-olfactometer” value ([5]; acetic acid 0.01 μL/μL hexane, 100 μL)?
A: Its value is “significantly more attracted”.

Q: What about the “Female choice between treatment and control sides of 4-way olfactometer” value [8] of the same molecule?
A: The value was “did not distinguish”.

Q: What about the “Time spent by females on treatment vs control sides of 4-way olfactometer” value [8] of the same molecule?
A: Its value is “not significantly different”.

Q: And the “Time spent by males in treatment vs control fields of 4-way olfactometer” value [9]?
A: Its value is “spent significantly more time”.

Q: And the “Male preference for treatment fields vs control sides in 4-way olfactometer” value ([9]; first choice)?
A: Its value is “highly significant”.

Q: And the “Female response to baited arm vs control side of Y-olfactometer” value [10]?
A: Its value is “did not differ significantly”.

Q: What about the “Captures vs control traps, preliminary field experiments” value ([2]; traps baited with 1 ug) of the same molecule?
A: Its value is “captured significantly more ACP adults than control traps”.

Q: And the Males caught ([2]; traps baited with 1 μg)?
A: The Males caught was 2.48±0.25 males per trap per day.

Q: And the Males caught ([2]; traps baited with 10 μg)?
A: Its Males caught is 3.08±0.33 males per trap per day.

Q: What about the Males caught ([2]; traps baited with 100 μg) of the same molecule?
A: Its Males caught is 4.23±0.35 males per trap per day.

Q: What about the ACP adults captured [2, 11] of the same molecule?
A: The ACP adults captured was 7.42±0.35 D. citri per trap per week.

Q: What about the ACP adults captured [2, 12] of the same molecule?
A: The ACP adults captured was 14.77±0.54 D. citri per trap per week.

Q: What about the ACP adults captured [2, 13] of the same molecule?
A: The ACP adults captured was 9.52±0.50 D. citri per trap per week.

Q: What about the “Effect on responses from olfactory receptor neurons” value [4] of the same molecule?
A: The value was “inhibit responses”.
